PMC10044445, “Tuning the Anthranilamide Peptidomimetic Design to Selectively Target Planktonic Bacteria and Biofilm” (Antibiotics, 2023)
Values after ≈ are worked out from the molar mass of the structure shown. Where two headings read alike, the source gives them in different places.

Tests used:
E. coli biofilms = experiment: Disruption of established biofilm, crystal violet staining; type: cell-based; settings: 24 h treatment; for disruption of established E. coli biofilm (in words): 1× to 8× MIC; for disruption of E. coli biofilm mass: 2× MIC (62.4 µM)
Experimental: (§1) Bacteria in biofilms are 10–1000 times more resistant to conventional antibiotics than planktonic bacteria. Moreover, biofilms are insensitive to antiseptics and many host immune responses. Since up to 80% of all microbial infections are biofilm-related, an effective antibacterial agent should also be able to disrupt established biofilms to tackle bacterial infections.
(§2) Bacterial cultures (S. aureus and E. coli) were grown in MHB media overnight at 37 °C with shaking at 120 rpm. Cultures were diluted (1:20) in an MHB medium and 200 μL aliquots were dispensed to flat bottom 96-well plate wells (Sarstedt, Mawson Lakes, Australia). Cultures were supplemented with varying concentrations of synthetic compounds dissolved in DMSO. Biofilm was grown in a 96-well plate for 24 h followed by the addition of synthetic compounds and incubated further for 24 h. Plates were sealed with self-adhesive microplate sealers (TopSeal-A, PerkinElmer) to allow air diffusion and to prevent condensation. Biofilms adhered on polystyrene substratum were quantified by crystal violet staining as described previously. The experiment was performed in triplicate.
Figure 5 Disruption of established biofilm of E. coli after 24 h treatment with 1× to 8× MIC concentrations of compounds 13d, 16b, 19a, and 19b. The negative control represents pre-established biofilms without any compounds. Error bars indicate the standard error of the mean (SEM) of three independent experiments.

S. aureus = experiment: Minimum inhibitory concentration, broth microdilution (CLSI); type: cell-based, Staphylococcus aureus; settings: for MIC90: broth microdilution in MHB, 18–24 h; for MIC: Table 2, lysine derivative versus parent, read-out: MIC S. aureus
Experimental: (§3) The antimicrobial activity of the compounds was evaluated by a broth microdilution assay using the procedure described by CLSI. Briefly, bacteria were grown to mid-log phase in Muller Hinton broth (MHB) with shaking at 120 rpm and incubated at 37 °C for 12–16 h. Following incubation, bacteria were washed three times in PBS pH 7.4 at 3500 g for 10 min. After washing, bacteria were diluted with fresh MHB. The turbidity of the bacterial suspensions was adjusted so that OD660nm was 0.1, which gave 1 × 10^8 CFU/mL, and then further diluted to achieve 5 × 10^5 CFU/mL as a final bacterial concentration. Each compound was diluted (250–3.9 µM) through two-fold dilution. Wells in microtiter plates were loaded with 100 µL of inoculum containing 5 × 10^5 CFU/mL bacteria. Wells without any compound and containing only bacteria were used as negative controls (i.e., no inhibition of growth). Wells with media only were set as blank. The microtiter plate was wrapped with paraffin to prevent evaporation and incubated with shaking at 120 rpm and 37 °C for 18–24 h. After incubation, spectrophotometric readings were taken. The well without any bacterial growth and showing zero spectrophotometric reading was regarded as the MIC of the compounds.

E. coli = experiment: as above; type: cell-based, Escherichia coli; settings: for MIC90 / MIC: Escherichia coli; for improvement in antibacterial activity against E. coli compared to the parent compound: versus parent 12a, 12j
Experimental: as §3

E. coli K12 = experiment: Cytoplasmic membrane permeability (depolarization) assay with DiSC3(5); type: cell-based; settings: 2× MIC
Experimental: (§4) Compounds 13d (series I), 16b (series II), 19a (series III) and 19b (series III) were selected as representative examples of each series with strong antibacterial activities (particularly against S. aureus). As AMPs are known to be membrane-targeting, membrane permeability assays are frequently used to confirm the mode of action of peptidomimetics. In this assay, S. aureus and E. coli were treated with the active compounds in the presence of the membrane potential-sensitive cyanine dye 3,3′-dipropylthiadicarbocyanine iodide (DiSC3(5)). Perturbation of the membrane by the compounds leads to loss of the membrane potential gradient (depolarization), causing the dye to be released into the medium and resulting in an increase in fluorescence intensity.
(§5) The method was adopted from Wu et al. with slight modifications. Bacterial cytoplasmic membrane permeability was determined using membrane potential sensitive dye diSC3-5 (3,3′-dipropylthiadicarbocyanine iodide) which penetrates inside bacterial cells depending on the membrane potential gradient of the cytoplasmic membrane. Bacteria were grown in MHB to mid-log phase by incubating with shaking at 37 °C for 18–24 h. Following incubation, bacteria were washed with 5 mM HEPES containing 20 mM glucose pH 7.2 and resuspended in the same buffer to an OD600 0.05–0.06 which gave 1 × 10^7 CFU/mL. The dye diSC3-5 was added at 4 µM to the bacterial suspension. The suspensions were incubated at room temperature for 1 h in the dark for maximum dye take-up by the bacterial cells. Then, 100 mM KCl was added to balance the K+ outside and inside the bacterial cell to prevent further uptake or outflow of the dye. For Gram-negative bacteria, 0.5 mM EDTA was used to destabilize the lipopolysaccharides-Mg^2+-Ca^2+ complex to help in dye penetration without affecting bacterial growth. A total of 100 µL of bacterial suspension was added to 96-well microtiter plate and with equal volume of antimicrobial compounds. DMSO (20%) was set as a positive control while dye and only bacterial cells were set as a negative control. Fluorescence was measured with a luminescence spectrophotometer at 3 min intervals at an excitation wavelength of 622 nm and an emission wavelength of 670 nm.
(§6) Figure 2 Cytoplasmic membrane depolarization of S. aureus 38 and E. coli K12 by 13d, 16b, 19a, 19b, as assessed by release of the membrane potential-sensitive dye DiSC3(5) measured spectroscopically at λex = 622 nm and λem = 670 nm at 2× MIC concentration. Data are presented as means (±SD) of three independent repeats. 20% DMSO was used as a positive control.

S. aureus 38 = experiment: as above; type: cell-based; settings: 2× MIC
Experimental: as §4, §5, §6

S. aureus biofilms = experiment: Disruption of established biofilm, crystal violet staining; type: cell-based; settings: 24 h treatment
Experimental: as §1, §2
Figure 4 Disruption of established biofilms of S. aureus after 24 h treatment with 1× to 8× MIC concentrations of compounds 13d, 16b, 19a, 19b. The positive control represents the pre-established biofilms without any compounds. Error bars indicate the standard error of the mean (SEM) of three independent experiments.

[1] = tested on: Bacillus subtilis strain BS23; experiment: Membrane integrity study, epifluorescence microscopy (atpA-GFP); type: cell-based; settings: 50 μM, 45 min
Experimental: The mechanism of action of compounds 16b, 19a, and […] was further studied using Bacillus subtilis strain BS23, which contains a fusion of green fluorescence protein (GFP) to the α-subunit of the membrane-localized ATP synthase. In the assay, if the compounds damage the membrane, the green fluorescence will change from a uniform distribution to a clustered distribution. Epifluorescence microscopy was used to image the changes in the cells.
Bacillus subtilis BS23 (atpA-GFP) was grown in LB (10 g/L Tryptone, 5 g/L Yeast Extract, 5 g/L NaCl) supplemented with 0.5% (w/v) xylose at 37 °C, to an OD600 of 0.3 and then treated with 50 μM of the AMP mimics, 10 μg/mL of colistin or 0.25% (v/v) DMSO (vehicle control). The cells were grown for a further 45 min before being examined by epifluorescence microscopy. Micrographs were background subtracted, merged, and aligned in images.
Figure 3 Epifluorescence microscopy images showing membrane integrity of B. subtilis strain BS23 treated with colistin (10 µg/mL) and compounds 16b, 19a, and 19b (50 µM).

MRC-5 human fibroblasts = experiment: Toxicity assay, Alamar Blue; type: cell-based; settings: for IC50: MRC5, MRC-5 human fibroblasts, 72 h drug incubation, Alamar Blue
Experimental: Normal human lung fibroblasts MRC-5 were cultured in minimal essential medium (MEM, Invitrogen) supplemented with 10% foetal calf serum (FCS), 1% L-glutamine–penicillin–streptomycin, 2% sodium bicarbonate, 1% non-essential amino acids (NEAA), and 1% sodium pyruvate. The cell line was maintained at 37 °C in 5% CO2 as an adherent monolayer and was passaged upon reaching confluence by standard cell culture techniques. MRC-5 cells were seeded at 2 × 10^4 cells per well in 96-well plates to ensure full confluence (quiescence). Cells were treated for 24 h after seeding with 0.1 to 1000 μM of compounds. After 72 h of drug incubation, the treated media was replaced with fresh media containing 10% Alamar Blue and the cells were incubated for another 6 h. The metabolic activity was detected by spectrophotometric analysis by assessing the absorbance of Alamar blue as previously described by Pasquier et al. Cell proliferation was determined and expressed as a percentage of untreated control cells. The determination of IC50 values was performed using GraphPad Prism 6 (San Diego, CA, USA). Each experiment was performed in triplicate and was repeated in three independent experiments.

[2] = broth microdilution in MHB, 18–24 h
[3] = Table 2, lysine derivative versus parent, read-out: MIC E. coli

Row | Structure (SMILES) | disruption of established E. coli biofilm (in words) (E. coli biofilms) | disruption of E. coli biofilm mass (E. coli biofilms) | MIC90 (S. aureus; Staphylococcus aureus) | MIC90 (E. coli; [2]) | cytoplasmic membrane depolarization (DiSC3(5) release) (E. coli K12) | cytoplasmic membrane depolarization (DiSC3(5) release) (S. aureus 38) | disruption of established S. aureus biofilm (S. aureus biofilms; 4× MIC (15.6 µM)) | disruption of established S. aureus biofilm (S. aureus biofilms; 8× MIC (31.2 µM)) | membrane damage (clustering of GFP fluorescence) [1] | IC50 (MRC-5 human fibroblasts) | MIC (S. aureus; Staphylococcus aureus) | MIC (E. coli; [3]) | improvement in antibacterial activity against E. coli compared to the parent compound (E. coli) | disruption of established S. aureus biofilm (S. aureus biofilms; 2× MIC (31.2 µM)) | disruption of established S. aureus biofilm (S. aureus biofilms; 8× MIC (125 µM)) | MIC90 (S. aureus) | therapeutic window: IC50 to human cells over MIC90 (MRC-5 human fibroblasts; IC50 MRC-5 versus MIC90 for either S. aureus or E. coli) | MIC (E. coli; broth microdilution in MHB, 18–24 h, read-out: MIC90 E. coli) | toxicity to mammalian cells (in words) (MRC-5 human fibroblasts; at 31.2 µM)
1 | COc1cc2ccccc2cc1C(=O)Nc1ccc(Br)cc1C(=O)N[C@@H](Cc1c[nH]c2ccccc12)C(=O)NCCCN [Compound 13d, (S)-N-(2-((1-((3-aminopropyl)amino)-3-(1H-indol-3-yl)-1-oxopropan-2-yl)carbamoyl)-4-bromophenyl)-3-methoxy-2-naphthamide] | significant disruption | 59% | 3.9 µM (≈ 2.51 µg/mL) | 62.5 µM (≈ 40.2 µg/mL) | relatively inactive | relatively inactive | 75% | 99% |  |  |  |  |  |  |  |  |  |  | 
2 | NCCNC(=O)[C@H](Cc1c[nH]c2ccccc12)NC(=O)c1cc(-c2ccc3ccccc3c2)ccc1N [Compound 16b, (S)-2-amino-N-(1-((2-aminoethyl)amino)-3-(1H-indol-3-yl)-1-oxopropan-2-yl)-5-(naphthalen-2-yl)benzamide] | not effective |  | 3.9 µM (≈ 1.92 µg/mL) | 31.2 µM (≈ 15.3 µg/mL) |  |  | 93% |  | caused membrane damage | 24.6 µM |  |  |  |  |  |  |  |  | 
3 | NCCCC[C@H](N)C(=O)NCCNC(=O)[C@H](Cc1c[nH]c2ccccc12)NC(=O)c1cc(Br)ccc1NC(=O)c1ccc2ccccc2c1 [Compound 19a, N-(4-bromo-2-(((S)-1-((2-((S)-2,6-diaminohexanamido)ethyl)amino)-3-(1H-indol-3-yl)-1-oxopropan-2-yl)carbamoyl)phenyl)-2-naphthamide] | not effective |  | 15.6 µM (≈ 11.3 µg/mL) | 15.6 µM (≈ 11.3 µg/mL) | greater membrane disruption in E. coli than in S. aureus |  |  |  | caused membrane damage | 83.9 µM | 15.6 µM (≈ 11.3 µg/mL) | 15.6 µM (≈ 11.3 µg/mL) | > 16 fold | over 60% | ~99% |  |  |  | 
4 | NCCCC[C@H](N)C(=O)NCCNC(=O)[C@H](Cc1c[nH]c2ccccc12)NC(=O)c1cc(Br)ccc1NC(=O)c1cccc(-c2ccccc2)c1 [Compound 19b, N-(4-bromo-2-(((S)-1-((2-((S)-2,6-diaminohexanamido)ethyl)amino)-3-(1H-indol-3-yl)-1-oxopropan-2-yl)carbamoyl)phenyl)-[1,1′-biphenyl]-3-carboxamide] | significant disruption | little effect | 15.6 µM (≈ 11.7 µg/mL) | 15.6 µM (≈ 11.7 µg/mL) |  | reversed trend |  |  | caused membrane damage | 164 µM | 15.6 µM (≈ 11.7 µg/mL) | 15.6 µM (≈ 11.7 µg/mL) |  | over 60% | ~99% | 15.6 µM (≈ 11.7 µg/mL) | over 10 times |  | 
5 | NCCCC[C@H](N)C(=O)NCCNC(=O)[C@H](Cc1c[nH]c2ccccc12)NC(=O)c1cc(Br)ccc1NC(=O)c1ccc(-c2ccccc2)cc1 [Compound 19c, N-(4-bromo-2-(((S)-1-((2-((S)-2,6-diaminohexanamido)ethyl)amino)-3-(1H-indol-3-yl)-1-oxopropan-2-yl)carbamoyl)phenyl)-[1,1′-biphenyl]-4-carboxamide] |  |  | 15.6 µM (≈ 11.7 µg/mL) | 62.5 µM (≈ 47 µg/mL) |  |  |  |  |  | 150 µM | 15.6 µM (≈ 11.7 µg/mL) | 62.5 µM (≈ 47 µg/mL) | > 16 fold |  |  |  |  | 15.6 µM (≈ 11.7 µg/mL) | non-toxic
